Results as given in paper PMC2195891 (2006).

System: human telomeric quadruplex (Htelo), 5'-biotin SPR strand (DNA, G4) GTTAGGGTTAGGGTTAGGGTTAGGGTTAGG
Test: SPR, equilibrium response
Conditions: K+ 100 mM (KCl), 50 mM Tris-HCl pH 7.4

| KD (up to 6.25 μM) | KD (up to 25 μM) | SMILES |
| --- | --- | --- |
| 0.63 ± 0.08 µM | – | C[n+]1ccc(-c2c3nc(c(-c4cc[n+](C)cc4)c4ccc([nH]4)c(-c4cc[n+](C)cc4)c4nc(c(-c5cc[n+](C)cc5)c5ccc2[nH]5)C=C4)C=C3)cc1 |
| – | 5.88 ± 0.90 µM | C[n+]1ccc(-c2c3nc(c(-c4cc[n+](C)cc4)c4ccc([nH]4)c(-c4cc[n+](C)cc4)c4nc(cc5ccc2[nH]5)C=C4)C=C3)cc1 |
| – | 18.90 ± 2.80 µM | C[n+]1ccc(-c2c3nc(c(-c4cc[n+](C)cc4)c4ccc(cc5nc(cc6ccc2[nH]6)C=C5)[nH]4)C=C3)cc1 |
| 0.83 ± 0.10 µM | – | C[n+]1ccc(-c2c3nc(cc4ccc([nH]4)c(-c4cc[n+](C)cc4)c4nc(cc5ccc2[nH]5)C=C4)C=C3)cc1 |
